For assay [1], the target named is T1, CO (Rattus norvegicus, UniProt Q63921).
T1 construct: the supernatant was saved as the source of enzymes; endogenous in cells; host or cells: RBL-1 (rat basophilic leukemia) cells
T1 sequence (Q63921 27-602): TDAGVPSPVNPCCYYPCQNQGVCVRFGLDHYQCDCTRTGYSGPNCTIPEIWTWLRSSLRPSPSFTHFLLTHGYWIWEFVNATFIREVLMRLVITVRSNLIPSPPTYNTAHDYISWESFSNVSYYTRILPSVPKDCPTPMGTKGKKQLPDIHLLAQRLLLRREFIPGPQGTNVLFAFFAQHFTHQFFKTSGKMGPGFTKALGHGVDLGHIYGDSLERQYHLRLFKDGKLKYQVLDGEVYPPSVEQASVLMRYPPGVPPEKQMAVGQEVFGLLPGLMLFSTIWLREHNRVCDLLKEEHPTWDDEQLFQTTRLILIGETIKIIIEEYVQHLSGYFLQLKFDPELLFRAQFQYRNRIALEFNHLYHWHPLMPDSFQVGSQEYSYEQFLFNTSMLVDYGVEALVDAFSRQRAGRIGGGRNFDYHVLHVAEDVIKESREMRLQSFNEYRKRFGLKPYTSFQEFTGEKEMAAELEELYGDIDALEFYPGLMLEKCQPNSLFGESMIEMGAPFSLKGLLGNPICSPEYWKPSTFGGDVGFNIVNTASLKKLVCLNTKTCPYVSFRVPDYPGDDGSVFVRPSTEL
As to the kind of experiment: Procedure II: CO activity in broken RBL-1 cells (homogenate supernatant). Format: biochemical. Conditions: RBL-1 broken cell supernatant; for inhibition at 10 µM: 20 min, @ 10 .quadrature.M, read-out: Proc. II CO % inhibition. The procedure, abridged:
(§1)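 Supernatant from rat RBL-1 homogenate (9,220×g) was pre-incubated 5 min at 37 °C with 2 mM CaCl2 and compound or 1% DMSO, then with 1-^14C-arachidonic acid for 20 min at 37 °C.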

For assay [2], the target named is T1, CO. As to the kind of experiment: Procedure III: CO (PgD2) in intact RBL-1 cells. The class given is cell-based. Particulars: calcium ionophore A 23187, read-out: Proc. III CO IC50. The protocol: The IC50 was determined using a curve fit in Cricket Graph (Computer Associated), which provided the equation of the regressed line used in the calculation.
In Procedure III, the ability to inhibit 5-LO and CO in intact RBL-1 cells was also evaluated. […] Cells were collected by centrifugation, washed once in HBSS, and resuspended at a concentration of 1×10^5 cells/mL. Cells were incubated in the presence of vehicle or drug then centrifuged at 800×g for 10 minutes at 4° C. The supernatant was removed by aspiration and the cells were resuspended in 0.5 mL of HBSS. […] The conversion of AA to 5-LO products was initiated by the addition of 10 μL (50 μCi) of 1-^14 C-AA. Products were isolated by acidification and extraction, followed by thin layer chromatography analysis as described above. Radioactive areas corresponding to authentic 5-LO (5-HETE) and CO (PgD2) products were quantitated by the Bioscan 2000 Imaging System and the IC50 was calculated as above.

Assay [3] addresses T2, 5-LO (Rattus norvegicus, UniProt P12527).
T2 construct: the supernatant was saved as the source of enzymes; endogenous in cells; host or cells: RBL-1 (rat basophilic leukemia) cells
T2 sequence (P12527 1-673): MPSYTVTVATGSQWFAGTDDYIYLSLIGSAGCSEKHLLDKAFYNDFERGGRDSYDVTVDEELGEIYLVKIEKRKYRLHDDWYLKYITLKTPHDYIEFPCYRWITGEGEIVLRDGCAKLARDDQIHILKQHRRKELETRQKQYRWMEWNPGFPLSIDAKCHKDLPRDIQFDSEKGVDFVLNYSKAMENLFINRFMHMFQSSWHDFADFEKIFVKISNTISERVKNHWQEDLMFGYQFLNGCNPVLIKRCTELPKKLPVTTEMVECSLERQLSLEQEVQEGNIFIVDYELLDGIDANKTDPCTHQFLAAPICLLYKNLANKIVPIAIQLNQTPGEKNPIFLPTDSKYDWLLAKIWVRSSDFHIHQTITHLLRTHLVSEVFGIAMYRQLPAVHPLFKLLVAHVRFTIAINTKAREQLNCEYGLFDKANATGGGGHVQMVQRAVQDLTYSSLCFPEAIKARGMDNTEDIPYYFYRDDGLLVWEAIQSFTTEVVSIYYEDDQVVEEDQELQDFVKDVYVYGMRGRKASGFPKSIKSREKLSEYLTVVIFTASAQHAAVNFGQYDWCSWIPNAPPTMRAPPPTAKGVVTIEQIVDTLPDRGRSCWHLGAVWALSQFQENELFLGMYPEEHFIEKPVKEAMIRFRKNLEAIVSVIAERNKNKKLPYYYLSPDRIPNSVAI
As to the kind of experiment: Procedure III: 5-LO (5-HETE) in intact RBL-1 cells. Format: cell-based. Conditions: calcium ionophore A 23187, read-out: Proc. III 5-LO IC50. The procedure, abridged: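 Intact RBL-1 cells at 1×10^5 cells/mL in HBSS were preincubated with vehicle or drug, pelleted and resuspended, then given 1-^14C-AA. 5-HETE (5-LO) and PgD2 (CO) were separated by TLC after acidification/extraction and quantified by radioimaging; IC50 from regression curve fit.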

Assay [4] deals with T2, 5-LO. As to the kind of experiment: Procedure II: 5-LO activity (5-HETE) in broken RBL-1 cells (homogenate supernatant). The class given is biochemical. Particulars: RBL-1 broken cell supernatant; for inhibition at 10 µM: 20 min, @ 10 .quadrature.M, read-out: Proc. II 5-LO % inhibition; for IC50: read-out: Proc. II 5-LO IC50. The procedure, abridged:
as §1

Assay [5] has as its target T3, Sheep seminal vesicle (SSV) cyclooxygenase (Ovis aries, UniProt P05979).
T3 construct: Sheep seminal vesicle (SSV) cyclooxygenase (95% pure); purchased Biomol (Plymouth Meeting, PA); host or cells: sheep seminal vesicle
T3 sequence (P05979 25-600): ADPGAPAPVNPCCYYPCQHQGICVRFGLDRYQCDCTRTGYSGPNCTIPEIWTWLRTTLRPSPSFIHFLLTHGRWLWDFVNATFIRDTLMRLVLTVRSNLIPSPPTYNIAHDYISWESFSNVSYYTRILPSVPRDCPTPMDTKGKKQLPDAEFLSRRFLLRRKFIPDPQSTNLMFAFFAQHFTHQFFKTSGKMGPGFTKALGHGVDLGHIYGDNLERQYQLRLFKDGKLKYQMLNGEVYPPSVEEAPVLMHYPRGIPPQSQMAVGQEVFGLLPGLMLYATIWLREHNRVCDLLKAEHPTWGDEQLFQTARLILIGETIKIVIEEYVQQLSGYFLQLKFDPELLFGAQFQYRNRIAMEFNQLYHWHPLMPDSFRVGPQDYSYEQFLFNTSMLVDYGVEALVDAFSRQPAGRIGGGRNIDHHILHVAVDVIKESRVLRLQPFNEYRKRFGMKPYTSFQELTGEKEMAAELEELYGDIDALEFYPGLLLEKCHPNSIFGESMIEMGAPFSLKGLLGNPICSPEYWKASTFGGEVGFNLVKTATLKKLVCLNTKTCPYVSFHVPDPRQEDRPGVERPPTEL
As to the kind of experiment: Procedure I: inhibition of sheep seminal vesicle (SSV) cyclooxygenase. Particulars: SSV cyclooxygenase; for inhibition at 10 µM: 20 min, @ 10 .quadrature.M, read-out: Proc. I % inhibition; for IC50: read-out: Proc. I IC50. Format: biochemical. The essentials: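 Turnover of [1-14C]-arachidonic acid by SSV cyclooxygenase ran 20 min after a 5 min preincubation at 37° C with test compound. Products (PGD2, PGE2, etc.) were extracted, resolved by TLC and quantified by radio-imaging; inhibition came from comparing curve areas with and without compound.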

Assay [6] has as its system CO. As to the kind of experiment: Procedure IV: ex vivo eicosanoid synthesis assay using dogs, CO (TxB2). Format: in vivo. Conditions: dog, oral, 5 mg/kg. As for the experimental part:
(§2) Adult beagle or mongrel dogs (10-15 kg) of either sex were fasted overnight prior to the initiation of each experiment. The forelimb was clipped and swabbed with an alcohol prep (70% isopropanol). Blood was drawn by venipuncture into syringes containing lithium heparin (Starstead, Newton, N.C.) immediately prior to administration of compound or vehicle and then at various intervals following dosing. The test compound was administered orally as a suspension in 0.5% methocel. At various times after dosing, blood samples were drawn and placed on an electric rocker platform to assure complete and continuous mixing. White blood cell (wbc) counts were performed using a Sysmex hematology analyzer. This was done in an effort to normalize the number of leukocytes to be stimulated with calcium ionophore. A 1.0 mL aliquot of whole blood was challenged with 50 μL of a 2.6×10^-5 M solution of calcium ionophore A23187 (Calbiochem, La Jolla, Calif.) prepared in DMSO and diluted in HBSS. After a 15 minute incubation at 37° C., the reaction was stopped by placing the samples in an ice bath (4° C.) for 5 minutes and then centrifuging at 11,000×g for 5 minutes to separate the plasma fraction from blood cells. The plasma fraction was removed, diluted in an appropriate buffer, and analyzed for the presence of LTB4 and TxB2 by standard RIA techniques.

Assay [7] deals with 5-LO. As to the kind of experiment: Procedure IV: ex vivo eicosanoid synthesis assay using dogs, 5-LO (LTB4). The class given is in vivo. Particulars: dog, oral, 5 mg/kg. As for the experimental part: as §2

SMILES strings stand for the structures.

Turning to `CCOC(=O)CCC(=O)N(O)C(C)C#Cc1cc(-c2ccc(CC)cc2)n(-c2ccc(OC)cc2)n1` (centres unmarked) [Cpd 32], the inhibition at 10 µM at CO [1] came to 52%; on 5-LO [4] it was 97%; in assay [5], 3%. Besides, the half-inhibitory concentration (IC50) at CO [2] amounted to 14 µM; on 5-LO [3], 5.1 µM.

`CCc1ccc(-c2cc(C#CC(C)N(O)C(=O)OC)nn2-c2ccc(OC)cc2)cc1` (centres unmarked) [Cpd 34]: the values for the inhibition at 10 µM (at CO [1]; on 5-LO [4]; in assay [5]) were 72%, 78% and 21%, respectively. In addition, the figures for the half-maximal inhibitory concentration (IC50) on CO [2] and at 5-LO [3] were 0.75 µM and 57.4 µM, respectively.

With `COc1ccc(-n2nc(C#CC(C)N(O)C(C)=O)cc2-c2ccc(Cl)cc2)cc1` (centres unmarked) [Cpd 35, N-acetyl-N-(1-(5-(4-chlorophenyl)-1-(4-methoxyphenyl)pyrazol-3-yl)-1-butyn-3-yl)hydroxylamine], the “% inh CO” value in the assay on CO [6] (2 h) came out at 92%; in the assay with CO [6] (4 h), 75%; with CO [6] (6 h), 81%; in the assay on CO [6] (8 h), 62%; in the assay on CO [6] (24 h), 68%. For the same compound, the IC50 on 5-LO [3] is 8.1 µM; on 5-LO [4], 0.11 µM; in assay [5] it was 2.54 µM. The “% inh 5-LO” value with 5-LO [7] (2 h) is reported as 34%; with 5-LO [7] (4 h), 20%; in the assay with 5-LO [7] (6 h), 26%; in the assay with 5-LO [7] (8 h), 31%; in the assay on 5-LO [7] (24 h) it was 12%.

`COc1ccc(-n2nc(C#CC(C)N(O)C(=O)c3ccccc3)cc2-c2ccc(Cl)cc2)cc1` (centres unmarked) [Cpd 40]: the concentration for half-maximal inhibition (IC50) on CO [1] (read-out: Proc. II CO IC50) worked out at 14.9 µM; at CO [2], 5.5 µM; at 5-LO [3] it was 1.8 µM; on 5-LO [4], 0.92 µM. Further, the inhibition at 10 µM in assay [5] was found to be 5%.

On to `COC(=O)N(O)C(C)C#Cc1cc(-c2ccc(Cl)cc2)n(-c2ccc(OC)cc2)n1` (centres unmarked) [Cpd 41, N-methoxycarbony-N-(1-(5-(4-chlorophenyl)-1-(4-methoxyphenyl)pyrazol-3-yl)-1-butyn-3-yl)hydroxylamine], for which the inhibition at 10 µM at CO [1] was found to be 84%; at 5-LO [4], 77%. Moreover, the values for the IC50 (on CO [2]; at 5-LO [3]; in assay [5]) were 0.29 µM, 8.7 µM and 1.62 µM, respectively.

With `COc1ccc(-n2nc(C#CC(C)N(O)C(=O)Cn3ccnc3)cc2-c2ccc(C)cc2)cc1` (centres unmarked) [Cpd 43, N-(imidazol-1-yl)acetyl-N-(1-(1-(4-methoxyphenyl)-5-(4-methylphenyl)pyrazol-3-yl)-1-butyn-3-yl)hydroxylamine], the inhibition at 10 µM came to 13% at CO [1] and 67% at 5-LO [4]. Besides, the IC50 at CO [2] stood at 3.6 µM; at 5-LO [3] it was 38.7 µM; in assay [5] it was 10 µM.

In general, inhibition refers to how much of the control response was suppressed. One may read the IC50 as the concentration needed to halve the response being measured.

The values are drawn from patent US5925769A, “Acetylenic 1,5-diarylpyrazoles as antiinflammatory agents” (Ortho Pharmaceutical, Corp., priority 1998, dated 1999).
